Measured values as given in patent US6410723B1, “VDUP1 promoter and methods of use thereof” (priority 2000, dated 2002).

Columns and labels:
VDUP1 promoter = assay: Secreted alkaline phosphatase reporter assay, COS cells transiently transfected with VDUP1 promoter constructs, treated with Vitamin D3; type: cell-based, monkey; settings: 200 nM Vitamin D3, all constructs tested, AP reporter
Method: (§1) FIG. 5 is a graph showing secreted alkaline phosphatase (SEAP) activity upon transient transfection of COS cells of various VDUP1 promoter constructs operably linked to an alkaline phosphatase encoding nucleotide sequence, treated or untreated with 200 nM Vitamin D3.
(§2) Four deletion constructs were generated corresponding to 5′ end lengths of 1448bp (SEQ ID NO:1), 1002bp (SEQ ID NO:4), 597bp (SEQ ID NO:3), and 452bp (SEQ ID NO:2) as shown in FIG. 1. In the 452bp (SEQ ID NO:2) construct, the two Sp1 elements are deleted. Each fragment was generated by PCR from the 3.0 kb EcoRI-BamHI subclone, and introduced upstream of the secreted alkaline phosphatase (AP) reporter nucleic acid sequence. Representative clones of each were verified by DNA sequencing. The VDUP1 constructs were then transfected into COS cells and screened for expression in comparison to an SV40 immediate early promoter driven AP construct.

[1] = test system: SV40 immediate early promoter; assay: Secreted alkaline phosphatase reporter assay, COS cells transfected with SV40 promoter control construct, treated with vitamin D3; type: cell-based; settings: addition of vitamin D3 (200 nM), AP reporter
Method: as §1, §2

VDUP1 gene = settings: human HL-60 cells; cited from earlier work
thioredoxin (TRX) = settings: HL-60 cells treated with vitamin D3; cited from earlier work

| Compound | enhancement of VDUP1 expression (VDUP1 promoter) [%] | induction of SV40 control [1] | induction of VDUP1 (VDUP1 gene) | expression of TRX (thioredoxin (TRX)) |
| --- | --- | --- | --- | --- |
| C=C1/C(=C\C=C2/CCC[C@]3(C)[C@@H]([C@H](C)CCCC(C)(C)O)CC[C@@H]23)C[C@@H](O)C[C@@H]1O [Vitamin D3, 1,25-dihydroxyvitamin D3] | 25 | not induced | strongly induced | significant decrease |
| C[C@@H]1C[C@@H]([C@H](O)CC2CC(=O)NC(=O)C2)C(=O)[C@@H](C)C1 [cyclohexamide] | – | – | several fold | – |
